Holding throughout (format): biochemical
Assay [1] deals with T1, RET wt (Homo sapiens, UniProt P07949).
T1 construct: purchased Carna 08-159
Briefly: In vitro kinase activity assay (mobility shift assay), RET wild type. Conditions: ATP 16 μM, reaction time 60 min. How it is done:
(§1) The IC50 (half inhibitory concentration) values of the compounds were used as an indicator to evaluate the inhibitory effect of the compound on RET wild-type, RET mutant, TRKa, SRC, BTK and/or mutated BTK kinase.
(§2) Using the method of Mobility shift assay, the compounds were tested for inhibitory activity against the following kinases: RET wild type, RET mutant, TRKa, SRC, BTK and/or mutated BTK. The initial concentration of the test compound was 1000 nM, 3-fold dilution, 10 concentrations, detected in a well for each concentration.
(§3) 20 mM hydroxyethylpiperazineethanesulfonic acid (Hepes) (pH 7.5) buffer, 10 mM MgCl2, 1 mM ethylene glycol bis(aminoethyl ether)tetraacetic acid (EGTA), 0.02% polyoxyethylene lauryl ether (Brij35), 0.02 mg/ml […] (BSA), 0.1 mM Na3VO4, 2 mM dithiothreitol (DTT), 1% DMSO.
(§4) The test compounds were dissolved in 100% dimethyl sulfoxide (DMSO) system, and prepared as 10 mM for use, and stored in a nitrogen cabinet away from light.
(§5) • (1) Preparing 1× kinase reaction buffer. • (2) Preparation of compound concentration gradient: the initial concentration of the compounds was 1000 nM, which was diluted as 100-fold final concentration of solution in 100% dimethyl sulfoxide (DMSO) in a 384-well plate. The compound was accurately 3-fold diluted with the kinase buffer solution, 10 concentrations in total, and the final concentration was 0.0508 nM. The 100-fold final concentration of solution in 100% dimethyl sulfoxide (DMSO) was obtained by dilution in 384 source plate. The liquid separator Echo 550 was used to transfer 250 nl of 100-fold final concentration of compound to the target 384 well plate. 250 nl of DMSO was added to the positive and negative control wells. • (3) 2.5-fold final concentration of kinase solution was prepared by the 1× kinase buffer. • (4) 10 4, of 2.5-fold final concentration of kinase solution was added to the compound well and the positive control well, respectively; 10 4, of 1× kinase buffer was added to the negative control well. • (5) After centrifuging at 1000 rpm for 30 second, the reaction plate was shaken and mixed, followed by incubation at room temperature for 10 min. • (6) a mixed solution of 25/15-fold final concentration of adenosine triphosphate (ATP) and kinase substrate was prepared by 1× kinase buffer. • (7) The mixed solution (15 μL) of 25/15-fold final concentration of adenosine triphosphate (ATP) and substrate was added to initiate the reaction. • (8) 384-well plate was centrifuged at 1000 rpm for 30 second, shaken and mixed well, and then incubated at room temperature for 30-240 min. • (9) After stopping the kinase reaction, the plate was centrifugated at 1000 rpm for 30 second, shaken and mixed well. • (10)The conversion rate was read with Caliper EZ Reader.
(§6) wherein Conversion%_sample is the conversion rate reading of the sample; Conversion%_min: the mean value of negative control wells, representing the conversion rate reading of wells without enzymes; Conversion%_max: the mean value of positive control wells, representing the conversion rate reading of wells without compound inhibition.
(§7) The log value of concentration was taken as the X axis, and the percentage inhibition rate was taken as the Y axis. Graphpad 6.0 analysis software was used to fit the dose-response curve, so as to obtain the IC50 value of each compound on the enzyme activity

Assay [2] concerns the target T2, RET G810R (Homo sapiens, UniProt P07949, G810R).
T2 construct: purchased Proqinase 1724-0000-1
Briefly: In vitro kinase activity assay (mobility shift assay), RET G810R. Conditions: ATP 201 μM, reaction time 4 h. How it is done: as §1, §2, §3, §4, §5, §6, §7

The target in assay [3] is T3, RET V804M (Homo sapiens, UniProt P07949, V804M).
T3 construct: purchased signalchem R02-12GG
Briefly: In vitro kinase activity assay (mobility shift assay), RET V804M. To be noted: ATP 5.4 μM, reaction time 60 min. As for the experimental part:
as §1, §2, §3, §4, §5, §6, §7

This note sets out measurements from US20230219978A1, “COMPOUND HAVING MACROCYCLIC STRUCTURE AND USE THEREOF” (SCINNOHUB PHARMACEUTICAL CO., LTD, priority 2020, published 2023).

A value given as a limit tells only on which side of the number the result lay.

T2 sequence (P07949 29-1114 G810R): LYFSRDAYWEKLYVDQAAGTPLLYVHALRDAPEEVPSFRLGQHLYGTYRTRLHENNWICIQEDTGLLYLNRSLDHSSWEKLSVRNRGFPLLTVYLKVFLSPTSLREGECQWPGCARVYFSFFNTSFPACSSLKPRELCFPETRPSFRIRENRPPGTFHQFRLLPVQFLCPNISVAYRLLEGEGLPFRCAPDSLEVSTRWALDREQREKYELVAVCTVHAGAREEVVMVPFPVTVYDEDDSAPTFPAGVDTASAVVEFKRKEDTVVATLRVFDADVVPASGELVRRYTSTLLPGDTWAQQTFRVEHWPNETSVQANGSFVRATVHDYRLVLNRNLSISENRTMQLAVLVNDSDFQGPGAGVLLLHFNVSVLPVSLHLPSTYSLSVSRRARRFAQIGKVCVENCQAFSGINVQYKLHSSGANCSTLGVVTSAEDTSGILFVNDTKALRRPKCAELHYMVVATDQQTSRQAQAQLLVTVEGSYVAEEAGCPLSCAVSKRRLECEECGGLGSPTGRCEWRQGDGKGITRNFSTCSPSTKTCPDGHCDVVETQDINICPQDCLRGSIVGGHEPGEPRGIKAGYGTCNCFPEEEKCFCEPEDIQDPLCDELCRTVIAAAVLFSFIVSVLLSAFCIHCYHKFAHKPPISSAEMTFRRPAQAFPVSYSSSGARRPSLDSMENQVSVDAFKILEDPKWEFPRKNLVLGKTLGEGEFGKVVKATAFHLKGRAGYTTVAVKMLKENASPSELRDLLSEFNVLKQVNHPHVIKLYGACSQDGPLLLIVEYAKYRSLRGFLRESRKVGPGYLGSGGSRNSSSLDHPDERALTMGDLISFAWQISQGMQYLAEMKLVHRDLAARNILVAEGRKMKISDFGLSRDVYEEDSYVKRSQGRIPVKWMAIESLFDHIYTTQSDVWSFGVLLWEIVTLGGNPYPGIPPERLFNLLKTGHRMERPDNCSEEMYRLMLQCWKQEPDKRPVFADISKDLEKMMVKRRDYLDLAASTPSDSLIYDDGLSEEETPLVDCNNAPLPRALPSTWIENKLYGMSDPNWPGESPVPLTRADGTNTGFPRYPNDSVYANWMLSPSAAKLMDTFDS
T3 sequence (P07949 29-1114 V804M): as the sequence (P07949 29-1114 G810R) above, with V776M, R782G counted along it
T1 sequence (P07949 29-1114): as the sequence (P07949 29-1114 G810R) above, with R782G counted along it

For orientation: IC50 means the concentration that inhibits the measured activity by half. Take `C[C@H]1CNC(=O)c2cnn3cc(-c4ccc5[nH]ccc5c4Cl)c(nc23)NCc2cc(F)cnc2O1` [Compound 34, (S, 1^3E, 1^4E)-1^6-(4-chloro-1H-indo1-5-yl)-4^5-fluoro-6-methyl-5-oxo-2,8-diaza-1(5,3)-pyrazolo[1,5-a]pyrimidin-4(3,2)-pyridinacyclononaphan-9-one]: the IC50 came out at 5.4 nM in assay [1] and 377 nM in assay [2].

On to `Nc1c(-c2ccccc2)c2nc3c(cnn13)C(=O)NCCCc1ncc(F)cc1CN2` [Example 73, (1^3E, 1^4E)-1^7-(amino)-4^5-fluoro-1^6-phenyl-2,8-aza-1(5,3)-pyrazolo[1,5-a]pyrimidinyl-4(3,2)-pyridinacyclononaphan-9-one], for which the results for the IC50 in assay [3], in assay [1] and in assay [2] were 137 nM, 4.4 nM and 238 nM, respectively.

Regarding `CC(C)Nc1ccc(-c2c3nc4c(cnn4c2N)C(=O)NC[C@H](C)Oc2ncc(F)cc2CN3)cc1` [Example 57, (S, 1^3E, 1^4E)-1^7-amino-4^5-fluoro-1^6-(4-(isopropylamino)phenyl)-6-methyl-5-oxo-2,8-diaza-1(5,3)-pyrazolo[1,5-a]pyrimidin-4(3,2)-pyridinacyclononaphan-9-one], the IC50 is 47 nM in assay [1] and over 1000 nM in assay [2].

Take `COc1ccc(-c2c3nc4c(cnn4c2N)C(=O)NC[C@H](C)Oc2ncc(F)cc2CN3)cc1` [Example 59, (S, 1^3E, 1^4E)-1^7-amino-4^5-fluoro-1^6-(4-methoxyphenyl)-6-methyl-5-oxo-2,8-diaza-1(5,3)-pyrazolo[1,5-a]pyrimidin-4(3,2)-pyridinacyclononaphan-9-one]: the results for the IC50 in assay [3], in assay [1] and in assay [2] were 38 nM, 2.4 nM and 130 nM, respectively.

Turning to `C[C@H]1CNC(=O)c2cnn3c(N)c(-c4ccc(N(C)C)cc4)c(nc23)NCc2cc(F)cnc2O1` [Example 58, (S, 1^3E, 1^4E)-1^7-amino-1^6-(4-(dimethylamino)phenyl)-4^5-fluoro-6-methyl-5-oxo-2,8-diaza-1(5,3)-pyrazolo[1,5-a]pyrimidin-4(3,2)-pyridinacyclononaphan-9-one], the IC50 was found to be 3.4 nM in assay [1] and 155 nM in assay [2].

For the molecule `C[C@H]1CNC(=O)c2cnn3c(N)c(-c4ccc(NC(=O)OCC(F)(F)F)cc4)c(nc23)NCc2cc(F)cnc2O1` [Example 68, trifluoroethyl (4-((S, 1^3E, 1^4E)-1^7-amino-4^5-fluoro-6-methyl-9-oxo-5-oxa-2,8-diaza-1(5,3)-pyrazolino [1,5-a]pyrimidin-4(3,2)-pyridinacyclononaphan-1^6-yl)-phenyl)carbamate], the IC50 in assay [3] was determined as 15 nM; in assay [1] it was 6.2 nM; in assay [2], 155 nM.

Consider `CCOC(=O)Nc1ccc(-c2c3nc4c(cnn4c2N)C(=O)NC[C@H](C)Oc2ncc(F)cc2CN3)cc1` [Example 62, ethyl (4-((S, 1^3E, 1^4E)-1^7-amino-4^5-fluoro-6-methyl-9-oxo-5-oxa-2,8-diaza-1(5,3)-pyrazolino [1,5-a]pyrimidin-4(3,2)-pyridinacyclononaphan-1^6-yl)-phenyl)carbamate], for which the results for the IC50 in assay [3], in assay [1] and in assay [2] were 0.94 nM, 0.26 nM and 15 nM, respectively.

In the case of `C[C@H]1CNC(=O)c2cnn3c(N)c(-c4cnn(C)c4)c(nc23)NCc2cc(F)cnc2O1` [Example 82, (S, 1^3E, 1^4E)-1^7-amino-4^5-fluoro-6-methyl-1^6-(1-methyl-1H-pyrazol-4-yl)-5-oxa-2,8-diaza-1(5,3)-pyrazolo[1,5-a]pyrimidin-4(3,2)-pyridinacyclononaphan-9-one], the results for the IC50 in assay [3], in assay [1] and in assay [2] were 9.5 nM, 1.1 nM and 138 nM, respectively.

For the molecule `CNc1ccc(-c2cn3ncc4c3nc2NCc2cc(F)cnc2O[C@@H](C)CNC4=O)c(Cl)c1` [Compound 39, (S, 1^3E, 1^4E)-1^6-(4-methylamino-2-chlorophenyl)-4^5-fluoro-6-methyl-5-oxa-2,8-diaza-1(5,3)-pyrazolo[1,5-a]pyrimidina-4(3,2)-pyridinacyclononaphan-9-one], the values for the IC50 in assay [1] and in assay [2] were 3 nM and 376 nM, respectively.

For the molecule `CCOC(=O)Nc1ccc(-c2c3nc4c(cnn4c2N)C(=O)NCCOc2ncc(F)cc2CN3)cc1` [Example 72, ethyl (4-((1^3E, 1^4E)-1^7-amino-4^5-fluoro-9-oxo-5-oxo-2,8-diaza-1(5,3)-pyrazolo[1,5-a]pyrimidin-4(3,2)-pyridinacyclononaphan-1^6-yl)phenyl)carbamate], the IC50 in assay [3] was determined as 1.4 nM; in assay [1], 0.56 nM; in assay [2] it was 14 nM.

Turning to `CNC(=O)Nc1ccc(-c2cn3ncc4c3nc2NCc2cc(F)cnc2O[C@@H](C)CNC4=O)c(Cl)c1` [Compound 35, 1-(3-chloro-4-((S, 1^3E, 1^4E)-4^5-fluoro-6-methyl-9-oxo-5-oxo-2,8-diaza-1(5,3)-pyrazolo[1,5-a]pyrimidin-4(3,2)-pyridinacyclononaphan-1^6-yl)phenyl)-3-methylurea], the IC50 in assay [1] was found to be 1.9 nM; in assay [2], 197 nM.

For `CC(C)OC(=O)Nc1ccc(-c2c3nc4c(cnn4c2N)C(=O)NC[C@H](C)Oc2ncc(F)cc2CN3)cc1` [Example 61, iso-propyl (4-((S, 1^3E, 1^4E)-1^7-amino-4^5-fluoro-6-methyl-9-oxo-5-oxa-2,8-diaza-1(5,3)-pyrazolino[1,5-a]pyrimidin-4(3,2)-pyridinacyclononaphan-1^6-yl)-phenyl)carbamate], the figures for the IC50 in assay [1] and in assay [2] were 1 nM and 21.8 nM, respectively.

`CNC(=O)Nc1ccc(-c2c3nc4c(cnn4c2N)C(=O)NC[C@H](C)Oc2ncc(F)cc2CN3)cc1` [Example 55, 1-(4-((S, 1^3E, 1^4E)-1^7-amino-4^5-fluoro-6-methyl-9-oxo-5-oxo-2,8-diaza-1(5,3)-pyrazolo[1,5-a]pyrimidin-4(3,2)-pyridinacyclononaphan-1^6-yl)phenyl)-3-methylurea]: the IC50 in assay [1] is 1.1 nM; in assay [2] it was 84.3 nM.

`C[C@H]1CNC(=O)c2cnn3cc(-c4ccc(NC(=O)OCC5CC5)cc4Cl)c(nc23)NCc2cc(F)cnc2O1` [Compound 46, cyclopropylmethyl (3-chloro-4-((S, 1^3E, 1^4E)-4^5-fluoro-6-methyl-9-oxo-5-oxadiaza-2,8-1(5,3)-pyrazolo[1,5-a]pyrimidin-4(3,2)-pyridinacyclononaphan-1^6-yl)phenyl)carbamate]: the results for the IC50 in assay [1] and in assay [2] were 5.1 nM and 96.9 nM, respectively.

In the case of `C[C@H]1CNC(=O)c2cnn3cc(-c4cn[nH]c4)c(nc23)NCc2cc(F)cnc2O1` [Compound 37, (S, 1^3E, 1^4E)-4^5-fluoro-6-methyl-1^6-(1H-pyrazol-4-yl)-5-oxa-2,8-diaza-1(5,3)-pyrazolo[1,5-a]pyrimidin-4(3,2)-pyridinacyclononaphan-9-one], the values for the IC50 in assay [1] and in assay [2] were 95 nM and over 1000 nM, respectively.

Turning to `C[C@H]1CNC(=O)c2cnn3c(N)c(-c4ccc5nc[nH]c5c4)c(nc23)NCc2cc(F)cnc2O1` [Compound 52, (S, 1^3E, 1^4E)-1^7-amino-1 ^6-(1H-benzo [d]imidazol-6-yl)-4^5-fluoro-6-methyl-5-oxo-2,8-diaza-1(5,3)-pyrazolo[1,5-a]pyrimidin-4(3,2)-pyridinacyclononaphan-9-one], the values for the IC50 in assay [1] and in assay [2] were 5.4 nM and 588 nM, respectively.

As for `C[C@H]1CNC(=O)c2cnn3cc(-c4ccc(N)cc4)c(nc23)NCc2cc(F)cnc2O1` [Compound 36, (S, 1^3E, 1^4E)-1^6-(4-aminophenyl)-4^5-fluoro-6-methyl-5-oxo-2,8-diaza-1(5,3)-pyrazolo[1,5-a]pyrimidin-4(3,2)-pyridinacyclononaphan-9-one], the IC50 is 27 nM in assay [1] and over 1000 nM in assay [2].

With `C[C@H]1CNC(=O)c2cnn3cc(-c4ccc(NS(C)(=O)=O)cc4Cl)c(nc23)NCc2cc(F)cnc2O1` [Compound 44], the IC50 in assay [1] is 286 nM; in assay [2], over 1000 nM.
